Laboratory results from ChEMBL document CHEMBL4651402, “Screening of ~5500 FDA-approved drugs and clinical candidates for anti-SARS-CoV-2 activity” (2021).
Where a name gives a salt, the structure may show the parent alone.

Tested on: SARS-CoV-2
Assay: microbe, parasite or virus in culture
Settings: Severe acute respiratory syndrome coronavirus 2, Vero C1008, 48 h

| SMILES | IC50 | IC50 (read-out: pIC50 (converted)) |
| --- | --- | --- |
| COc1c2ccccc2nc2occc12 [DICTAMNINE] | > 20 µM | > 20 µM |
| CC(C)Cc1sc(-c2nccs2)nc1C(=O)NCc1ccc(F)cc1 | > 20 µM | > 20 µM |
| COc1cc2c(cc1OC)C(=O)C(CC1CCN(Cc3ccccc3)CC1)C2 (stereo not given) [DONEPEZIL] | > 20 µM | > 20 µM |
| CCN1CCN(c2cc(-c3ccccc3)c3ccccc3n2)CC1 | > 20 µM | > 20 µM |
| Cn1c(=O)c2c(ncn2CCOC(=O)C(C)(C)Oc2ccc(Cl)cc2)n(C)c1=O [THEOFIBRATE] | > 20 µM | > 20 µM |
| CN(C(=O)CO/N=C(/c1ccccc1)c1ccc2c(c1)CN1CC(=O)NC1=N2)C1CCCCC1 | > 20 µM | > 20 µM |
| C[C@]12CCC(=NOCCN)C[C@@H]1C(=O)C[C@@H]1[C@@H]2CC[C@]2(C)C(=O)CC[C@@H]12 [ISTAROXIME] | > 20 µM | > 20 µM |
| OC[C@H]1O[C@@H]2O[C@H]3[C@H](O)[C@@H](O)[C@@H](O[C@H]4[C@H](O)[C@@H](O)[C@@H](O[C@H]5[C@H](O)[C@@H](O)[C@@H](O[C@H]6[C@H](O)[C@@H](O)[C@@H](O[C@H]7[C@H](O)[C@@H](O)[C@@H](O[C@H]8[C@H](O)[C@@H](O)[C@@H](O[C@H]9[C@H](O)[C@@H](O)[C@@H](O[C@H]1[C@H](O)[C@H]2O)O[C@@H]9CO)O[C@@H]8CO)O[C@@H]7CO)O[C@@H]6CO)O[C@@H]5CO)O[C@@H]4CO)O[C@@H]3CO [GAMMA-CYCLODEXTRIN] | > 20 µM | > 20 µM |
| CN1C[C@H](CNC(=O)OCc2ccccc2)C[C@@H]2c3cccc4c3c(cn4C)C[C@H]21 [METERGOLINE] | > 20 µM | > 20 µM |
| O=C(Nc1ccc(Cl)cc1)c1cc(Br)ccc1O [BROMOCHLOROSALICYLANILIDE] | > 20 µM | > 20 µM |
| O=C(Nc1ccc(Br)cc1)c1cc(Br)cc(Br)c1O [TRIBROMSALAN] | > 20 µM | > 20 µM |
| CC[C@H]1OC(=O)[C@H](C)[C@@H](O[C@H]2C[C@@](C)(OC)[C@@H](O)[C@H](C)O2)[C@H](C)[C@@H](O[C@@H]2O[C@H](C)C[C@H](N(C)C)[C@H]2O)[C@](C)(OC)C[C@@H](C)C(=O)[C@H](C)[C@@H](O)[C@]1(C)O [CLARITHROMYCIN] | > 20 µM | > 20 µM |
| CC(=O)Nc1ccc(C(=O)Nc2ccccc2N)cc1 [TACEDINALINE] | > 20 µM | > 20 µM |
| CNCC(O)c1ccc(O)cc1 (stereo not given) [OXEDRINE] | > 20 µM | > 20 µM |
| COc1cnc(NS(=O)(=O)c2ccc(N)cc2)nc1 | > 20 µM | > 20 µM |
| CCC(=O)C(CCN1CCCCC1)(c1ccccc1)c1ccccc1 [NORPIPANONE] | > 20 µM | > 20 µM |
| CC12CCC(O)CC1=CCC1C2CCC2(C)C(O)CCC12 (stereo not given) | > 20 µM | > 20 µM |
| CC(C)Cc1sc(N)nc1-c1ccc(P(=O)(O)O)o1 [MB-05032] | > 20 µM | > 20 µM |

| SMILES | IC50 | IC50 (read-out: pIC50 (converted)) |
| --- | --- | --- |
| COc1cc(CC(=O)NCCCc2ccc(C)c(C)c2)ccc1OCCN [DAVASAICIN] | > 20 µM | > 20 µM |
| CN(C)CCc1c[nH]c2ccccc12 | > 20 µM | > 20 µM |
| N[C@H](CO)Cc1ccccc1 [L-PHENYLALANINOL] | > 20 µM | > 20 µM |
| CC(NCCc1ccc(O)cc1)C(O)c1ccc(O)cc1 (stereo not given) [RITODRINE HYDROCHLORIDE] | > 20 µM | > 20 µM |
| CCOCCn1c(N2CCCN(C)CC2)nc2ccccc21 [EMEDASTINE] | > 20 µM | > 20 µM |
| COc1cc(C)nc(-n2nc(C)cc2OC)n1 [EPIRIZOLE] | > 20 µM | > 20 µM |
| CCCCCCNC(=O)n1cc(F)c(=O)[nH]c1=O [CARMOFUR] | > 20 µM | > 20 µM |
| Cc1cc(CC(=O)O)n(C)c1[14C](=O)c1ccc(Cl)cc1 | > 20 µM | > 20 µM |
| O=c1[nH]c(=O)n([C@H]2C[C@H](O)[C@@H](CO)O2)cc1/C=C/Br [BRIVUDINE] | > 20 µM | > 20 µM |
| CCCCCCC1C(=O)O[C@H](C)[C@H](NC(=O)c2cccc(NC=O)c2O)C(=O)O[C@@H](C)[C@@H]1OC(=O)CC(C)C (stereo not given in full) | > 20 µM | > 20 µM |
| O=S(=O)(O)NC1CCCCC1 [CYCLAMIC ACID] | > 20 µM | > 20 µM |
| COC1=C[C@@H]2[C@@H]3Cc4ccc(OC)c(O)c4[C@]2(CCN3C)CC1=O [SINOMENINE] | > 20 µM | > 20 µM |
| OC1CCCCC1N1CCC(c2ccccc2)CC1 (stereo not given) | > 20 µM | > 20 µM |
| CC(=C(CCO)SSCC1CCCO1)N(C=O)Cc1cnc(C)nc1N (stereo not given) | > 20 µM | > 20 µM |
| Nc1nc(=O)c2c([nH]1)NCC(CNc1ccc(C(=O)N[C@@H](CCC(=O)O)C(=O)O)cc1)N2C=O (stereo not given in full) [LEUCOVORIN] | > 20 µM | > 20 µM |
| CN1CCN(C2Cc3ccccc3Sc3ccc(Cl)cc32)CC1 (stereo not given) [CLOROTEPINE] | > 20 µM | > 20 µM |
| CN1Cc2c(ccc3c2OCO3)C2C(O)Cc3cc4c(cc3C21)OCO4 (stereo not drawn) [CHELIDONINE (+)] | > 20 µM | > 20 µM |
